Earlier results as cited in patent US20230287038A1, “PURIFIED SAPONINS AND CHROMATOGRAPHIC PROCESS FOR PURIFICATION OF SAME” (ACCESS TO ADVANCED HEALTH INSTITUTE, priority 2020, published 2023).

How the values were obtained:
[1] = reversed-phase chromatography fractions of saponin extract
[2] = test system: unconjugated bacterial polysaccharides; conditions: including unconjugated bacterial polysaccharides
[3] = test system: antigens bovine serum albumin and cytochrome b5; conditions: mice
[4] = aqueous solution

## QS-21
[1]
  adjuvant activity: identified with adjuvant activity
[2]
  antibody response to T-independent antigens: enhance antibody responses
[3]
  antibody response to bovine serum albumin and cytochrome b5: stimulate potent antibody responses
[4]
  pH at which hydrolysis of the fatty acyl ester bond (de-acylation) is minimized: ~5.5

## QS-17
[1]
  adjuvant activity: identified with adjuvant activity
[3]
  antibody response to bovine serum albumin and cytochrome b5: stimulate potent antibody responses

## QS-18
[1]
  adjuvant activity: identified with adjuvant activity
[3]
  antibody response to bovine serum albumin and cytochrome b5: stimulate potent antibody responses
